System: P. aeruginosa ATCC BAA-3107 (SEN) and P. aeruginosa LESB58 (MDR)
Assay: Adaptive laboratory evolution (ALE), relative MIC of evolved lines
Type: cell-based, Pseudomonas aeruginosa
In short: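 Ten parallel populations per antibiotic–ancestor pair were evolved in MHB at 37 °C, starting near 50% growth-inhibiting drug. Every 72 h they were passaged into 0.5–2.5× increasing concentrations, keeping the highest-drug well with OD600 > 0.2.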

## polymyxin-B
PA-MDR (P. aeruginosa LESB 58), evolved line 4 of the given antibiotic
  MIC of evolved line: 4 µg/mL
PA-MDR (P. aeruginosa LESB 58), evolved line 5 of the given antibiotic
  MIC of evolved line: 4 µg/mL
PA-MDR (P. aeruginosa LESB 58), evolved line 7 of the given antibiotic
  MIC of evolved line: 32 µg/mL
PA-MDR (P. aeruginosa LESB 58), evolved line 8 of the given antibiotic
  MIC of evolved line: 8 µg/mL
PA-MDR (P. aeruginosa LESB 58), evolved line 10 of the given antibiotic
  MIC of evolved line: 16 µg/mL
PA-MDR LESB 58, evolved line 1
  MIC of evolved line: 64 µg/mL
PA-MDR LESB 58, evolved line 2
  MIC of evolved line: 256 µg/mL
PA-MDR LESB 58, evolved line 3
  MIC of evolved line: 16 µg/mL
PA-SEN (P. aeruginosa ATCC BAA 3107), evolved line 1 of the given antibiotic
  MIC of evolved line: 32 µg/mL
PA-SEN (P. aeruginosa ATCC BAA 3107), evolved line 4 of the given antibiotic
  MIC of evolved line: 32 µg/mL
PA-SEN (P. aeruginosa ATCC BAA 3107), evolved line 5 of the given antibiotic
  MIC of evolved line: 32 µg/mL
PA-SEN (P. aeruginosa ATCC BAA 3107), evolved line 6 of the given antibiotic
  MIC of evolved line: 4 µg/mL
PA-SEN (P. aeruginosa ATCC BAA 3107), evolved line 7 of the given antibiotic
  MIC of evolved line: 16 µg/mL
PA-SEN (P. aeruginosa ATCC BAA 3107), evolved line 8 of the given antibiotic
  MIC of evolved line: 16 µg/mL
PA-SEN (P. aeruginosa ATCC BAA 3107), evolved line 9 of the given antibiotic
  MIC of evolved line: 4 µg/mL
PA-SEN (P. aeruginosa ATCC BAA 3107), evolved line 10 of the given antibiotic
  MIC of evolved line: 4 µg/mL
